From US20020055174A1, “Complex for transferring an anionic substance of interest into a cell” (priority 2000, published 2002)
Entries after “also recorded” stand apart in the source; their conditions may differ. Ends that are not written are not given here.

How the values were obtained:
HeLa cells [1] = assay: Transfection in vitro, luciferase plasmid pTG11236; format: cell-based
Protocol: Cells were plated on 24 well plates at a density of 4×10^4 (293-EBNA ) or 7×10^4 (HeLa, Renca) cells/well in DMEM supplemented with 10% FCS. The next day, the medium was replaced by 200 μl serum-free DMEM and plasmid (pTG11056 or pTG11236)/peptide complexes or plasmid/peptide/lipid complexes were prepared in 30 μl 0.9% NaCl or 5% glucose. After 20 min at room temperature these complexes were added to the cells which were then incubated for 2-3 h at 37° C. and 5% CO2 before 1 ml serum-containing DMEM was added. Approximately 20-hours later, cells were lysed by addition of 100 μl 1× Promega lysis buffer, 20 μl of the lysates were analysed for luciferase activity. Proteins were quantified with the bicinchonic acid (BCA) colorimetric method (Smith, Anal. Biochem. 150 (1985), 76-85).
In another experiment, 7×10^4 HeLa cells, seeded on 24-well plates the day before transfection, were transfected with 0.5 μg or 0.05 μg pTG11236, complexed with Lipofectin or ppTG1. The plasmid/peptide complexes were prepared in 30 μl of 5% glucose or 0.9% NaCl and added to the cells (200 μl serum-free medium) after 20 min at room temperature. Serum-containing medium was added after 3 h, the cells were harvested the next day.
A comparison of the effect on transfection efficiency of ppTG1 and JTS-1-K13 was carried out in HeLa cells. Complexes of 0.5 μg or 0.05 μg pTG11236 were formed with increasing amounts the respective peptide.
A comparison of ppTG1 and KALA was carried out in HeLa and CHO cells. 5×10^4 cells were seeded on 24 well plates. The next day, cells were transfected with 500 ng and 50 ng of pTG11236, complexed with ppTG1 or KALA in 30 μl 0.9% NaCl. The charge ratio +/− varied from 1, 2, 3, 4, 7 to 10. Cells were harvested 20 h after transfection and lysis was obtained in 100 μl Promega lysis buffer. Luciferase activity and total protein concentrations in 20 μl were determined.
HeLa cells were seeded at a density of 6×10^4 cells on 24 well plates. The next day, cells were incubated with 200 μl serum-free medium, 30 μl of plasmid (50 ng)/peptide/lipid mixtures were added and incubated for 3 h at 37° C. in 5% CO2. 1 ml of DMEM+10% FCS was then added. The next day, the medium was removed and cells were washed with 500 μl of PBS and subsequently treated with 100 μl of Promega lysis buffer. Plates were stored at −80° C. until luciferase activity was measured of 20 μl of the cell lysate. The protein assay was performed using the Pierce BCA kit.
JTS1 was dissolved to 1 mg/ml in 1 mM NaOH and mixed with DNA diluted in 5% glucose. ppTG1 was then added to this solution. The pcTG90/DOPE ppTG1 mixtures were prepared as described in Example 6. Transfection assays were performed on HeLa cells with 50 ng of plasmid as described in Example 6.
The series of ppTG1 derivatives listed in Material and Methods were tested for their gene transfer efficiencies in Hela cells. 6×10^4 cells were transfected with 50 ng pTG11236 complexed with increasing amounts of peptide. Luciferase activity was analyzed day 1 after transfection. The results are shown in FIG. 10B (ppTG20, ppTG21), FIG. 10C(ppTG25, ppTG26, ppTG27), FIG. 10D (ppTG28 to ppTG33), FIG. 10E (PEG-ppTG1 and PEG-ppTG20), FIG. 10F (ppTG22 to ppTG24) and FIG. 10G (ppTG20-D).

HeLa cells [2] = assay: Transfection in the presence of Bafilomycin A; format: cell-based; conditions: 175 nM Bafilomycin A, 150 ng pTG11236
Protocol: Transfection in the presence of Bafilomycin A: 6×10^4 HeLa cells were plated on 24 well plates. Cells were treated with 175 nM Bafilomycin A 30 min before and throughout the transfection (1 h incubation of cells with transfection mix in the absence of serum).
Bafilomycin A is a specific inhibitor of the vacuolar proton pump. Treatment with Bafilomycin inhibits the acidification of late endosomes. HeLa cells were treated with Bafilomycin A (175 nM) 30 min before and throughout the transfection (1 h incubation with transfection complexes in the absence of serum). 6×10^4 cells were transfected with 150 ng pTG11236 using PEI or ppTG1. The luciferase assay was performed 1 day after transfection.

GLFKALLKLLKSLWKLLLKA
luciferase activities (HeLa cells [1]; 0.05 μg pTG11236, complexes in 0.9% NaCl): higher luciferase activities than observed for Lipofectin formulations
luciferase activities (HeLa cells [1]; 0.5 μg or 0.05 μg pTG11236 with 1.17 μg or 0.117 μg ppTG1, charge ratio 1.8): comparable luciferase activities as observed for DNA formulated with Lipofectin
more efficient than the complex comprising KALA, best case (HeLa cells [1]; HeLa): 3000 fold
effect of Bafilomycin A on transfection efficiency (HeLa cells [2]): not diminished; also recorded: did not influence the transfection efficiency
